Experimental data published in US12472272B2, “Radiolabelled compounds for diagnosis or treatment of prostate-specific membrane antigen- expressing cancer” (PROVINCIAL HEALTH SERVICES AUTHORITY, priority 2019, dated 2025).

How the values were obtained:
[1] = tested on: PSMA-expressing LNCAP cancer xenografts; experiment: Biodistribution of ^68Ga-labeled PSMA-targeting tracers; assay type: in vivo, mice; details: 1 h post-injection
Experimental: (§1) Imaging and biodistribution experiments were performed using NODSCID 1L2RγKO male mice. Mice were anesthetized by inhalation with 2% isoflurane in oxygen, and implanted subcutaneously with 1×10^7 LNCaP cells behind left shoulder. Mice were imaged or used in biodistribution studies when the tumor grew up to reach 5-8 mm in diameter during 5-6 weeks.
(§2) PET imaging experiments were conducted using Siemens Inveon micro PET/CT scanner. Each tumor bearing mouse was injected 6-8 MBq of Ga-68 labeled tracer through the tail vein under anesthesia (2% isoflurane in oxygen). The mice were allowed to recover and roam freely in their cage. After 50 min, the mice were sedated again with 2% isoflurane in oxygen inhalation and positioned in the scanner. A 10-min CT scan was conducted first for localization and attenuation correction after segmentation for reconstructing the PET images. Then, a 10-min static PET imaging was performed to determined uptake in tumor and other organs. The mice were kept warm by a heating pad during acquisition. For imaging studies acquired at 3 h post-injection (p.i.), the mice were placed in the micro PET/CT scanner at 170 min p.i. Then, the CT acquisitions were conducted as described above, a 15-min static PET imaging was performed to determined uptake in tumor and other organs.
For biodistribution studies, the mice were injected with the radiotracer as described above. At predetermined time points (1 or 3 h for ^68Ga studies; 1, 4, 24, 72, or 120 h for ^177Lu studies), the mice was anesthetized with 2% isoflurane inhalation, and euthanized by CO2 inhalation. Blood was withdrawn immediately from the heart, and the organs/tissues of interest were collected. The collected organs/tissues were weighed and counted using a Perkin Elmer (Waltham, MA) Wizard2 2480 gamma counter. The uptake in each organ/tissue was normalized to the injected dose using a standard curve, and expressed as the percentage of the injected dose per gram of tissue (% ID/g).

LNCaP tumors = experiment: PET/CT imaging of ^68Ga-labeled tracers; assay type: in vivo, mice; details: FIG. 3
Experimental: as §1, §2

CCCCCC[C@H](NC(=O)[C@H]1CC[C@H](CNC(=O)CN2CCN(CC(=O)[O-])CCN(CC(=O)[O-])CCN(CC(=O)[O-])CC2)CC1)C(=O)NCCCC[C@H](NC(=O)N[C@@H](CCC(=O)O)C(=O)O)C(=O)O.[68Ga+3] [^68Ga-HTK03026]
Tissue (% ID/g): Adrenal glands [1]: 1.84 ± 0.95 % ID/g | Tissue (% ID/g): Blood [1]: 0.70 ± 0.19 % ID/g | Tissue (% ID/g): Bone [1]: 0.54 ± 0.20 % ID/g | Tissue (% ID/g): Brain [1]: 0.06 ± 0.02 % ID/g | Tissue (% ID/g): Fat [1]: 0.45 ± 0.11 % ID/g | Tissue (% ID/g): Heart [1]: 0.30 ± 0.06 % ID/g | Tissue (% ID/g): Intestine [1]: 0.29 ± 0.06 % ID/g | Tissue (% ID/g): Kidneys [1]: 68.5 ± 28.2 % ID/g | Tissue (% ID/g): Lacrimal [1]: 1.33 ± 0.90 % ID/g | Tissue (% ID/g): Liver [1]: 0.24 ± 0.06 % ID/g | Tissue (% ID/g): Lungs [1]: 0.82 ± 0.26 % ID/g | Tissue (% ID/g): Muscle [1]: 0.28 ± 0.13 % ID/g | Tissue (% ID/g): Pancreas [1]: 0.71 ± 1.04 % ID/g | Tissue (% ID/g): Salivary [1]: 0.83 ± 0.22 % ID/g | Tissue (% ID/g): Seminal [1]: 0.43 ± 0.31 % ID/g | Tissue (% ID/g): Spleen [1]: 1.34 ± 0.54 % ID/g | Tissue (% ID/g): Stomach [1]: 0.10 ± 0.03 % ID/g | Tissue (% ID/g): Tail [1]: 0.90 ± 0.56 % ID/g | Tissue (% ID/g): Testes [1]: 0.35 ± 0.22 % ID/g | Tissue (% ID/g): Thyroid [1]: 0.35 ± 0.08 % ID/g | Tissue (% ID/g): Tumor [1]: 12.5 ± 2.90 % ID/g | Tissue (% ID/g): Urine [1]: 575 ± 245 % ID/g | tumor-to-background contrast ratio Tumor: Blood [1]: 18.6 ± 5.54 | tumor-to-background contrast ratio Tumor: Muscle [1]: 52.8 ± 24.9 | tumor-to-background contrast ratio Tumor: kidney [1]: 0.22 ± 0.15 | Tissue (% ID/g): Tumor ([1]; listed as 68Ga-labeled HTK03026): ~13 % ID/g | uptake in PET/CT images (LNCaP tumors): higher uptake was observed in LNCap tumor xenografts, kidneys and urinary bladders

O=C([O-])CN1CCN(CC(=O)[O-])CCN(CC(=O)NC[C@H]2CC[C@H](C(=O)N[C@@H](Cc3ccc4cc5ccccc5cc4c3)C(=O)NCCCC[C@H](NC(=O)N[C@@H](CCC(=O)O)C(=O)O)C(=O)O)CC2)CCN(CC(=O)[O-])CC1.[68Ga+3] [^68Ga-HTK03027]
Tissue (% ID/g): Adrenal glands [1]: 3.55 ± 2.33 % ID/g | Tissue (% ID/g): Blood [1]: 1.56 ± 0.57 % ID/g | Tissue (% ID/g): Bone [1]: 0.70 ± 0.33 % ID/g | Tissue (% ID/g): Brain [1]: 0.06 ± 0.03 % ID/g | Tissue (% ID/g): Fat [1]: 1.03 ± 0.67 % ID/g | Tissue (% ID/g): Heart [1]: 0.56 ± 0.24 % ID/g | Tissue (% ID/g): Intestine [1]: 0.44 ± 0.12 % ID/g | Tissue (% ID/g): Kidneys [1]: 85.6 ± 73.5 % ID/g | Tissue (% ID/g): Lacrimal [1]: 1.00 ± 0.56 % ID/g | Tissue (% ID/g): Liver [1]: 0.46 ± 0.10 % ID/g | Tissue (% ID/g): Lungs [1]: 1.66 ± 0.67 % ID/g | Tissue (% ID/g): Muscle [1]: 0.48 ± 0.37 % ID/g | Tissue (% ID/g): Pancreas [1]: 0.57 ± 0.20 % ID/g | Tissue (% ID/g): Salivary [1]: 1.86 ± 0.91 % ID/g | Tissue (% ID/g): Seminal [1]: 10.6 ± 10.9 % ID/g | Tissue (% ID/g): Spleen [1]: 3.36 ± 2.54 % ID/g | Tissue (% ID/g): Stomach [1]: 0.17 ± 0.10 % ID/g | Tissue (% ID/g): Tail [1]: 0.98 ± 0.38 % ID/g | Tissue (% ID/g): Testes [1]: 0.56 ± 0.18 % ID/g | Tissue (% ID/g): Thyroid [1]: 0.76 ± 0.33 % ID/g | Tissue (% ID/g): Tumor [1]: 13.3 ± 5.44 % ID/g | Tissue (% ID/g): Urine [1]: 844 ± 645 % ID/g | tumor-to-background contrast ratio Tumor: Blood [1]: 8.57 ± 2.83 | tumor-to-background contrast ratio Tumor: Muscle [1]: 35.0 ± 18.7 | tumor-to-background contrast ratio Tumor: kidney [1]: 0.27 ± 0.20 | Tissue (% ID/g): Tumor ([1]; listed as 68Ga-labeled HTK03027): ~13 % ID/g | uptake in PET/CT images (LNCaP tumors): higher uptake was observed in LNCap tumor xenografts, kidneys and urinary bladders
